# Data: patent US10533010B2, “Substituted indole Mcl-1 inhibitors” (Vanderbilt University, priority 2014, dated 2020)
# Biological target: recombinant Mcl-1 (residues 172-327) (Homo sapiens (Human), UniProt Q07820)
# Assay: Fluorescence polarization anisotropy competition assay (FITC-Bak or FITC-Bim BH3 peptide) with Mcl-1
# Format: binding
# Conditions: not given
# Chain of recombinant Mcl-1 (residues 172-327) (Q07820 172-327): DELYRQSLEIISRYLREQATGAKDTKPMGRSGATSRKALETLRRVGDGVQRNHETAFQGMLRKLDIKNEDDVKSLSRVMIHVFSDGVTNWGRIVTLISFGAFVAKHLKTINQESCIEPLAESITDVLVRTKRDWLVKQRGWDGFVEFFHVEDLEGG
row,SMILES,Ki
1,"Cc1cc(OCCCc2c3n(c4c(-c5c(C)nn(C)c5C)cc(Cl)cc24)CCCN(c2cc(C(=O)O)c4ccn(C)c4c2)C3=O)cc(C)c1Cl [I-244, 6-(9-chloro-11-(3-(4-chloro-3,5-dimethylphenoxy)propyl)-1-oxo-7-(1,3,5-trimethyl-1H-pyrazol-4-yl)-4,5-dihydro-1H-[1,4]diazepino[1,2-a]indol-2(3H)-yl)-1-methyl-1H-indole-4-carboxylic acid]",101 to 299 nM
2,"Cc1cc(OCCCc2c(C(=O)NCC(=O)O)[nH]c3ccccc23)cc(C)c1Cl [I-3, (3-(3-(4-chloro-3,5-dimethylphenoxy)propyl)-1H-indole-2-carbonyl)glycine]",501 to 999 nM

# Same assay, conditions: Table 2; Ki bins given in nM; FITC-Bak or FITC-Bim peptide competition; Ki converted from IC50; read-out: Ki for Inhibition of Mcl-1
row,Ki,SMILES
1,< 50 nM,"Cc1cc(OCCCc2c3n(c4c(-c5c(C)nn(C)c5C)c(Cl)ccc24)CC(C)CN(Cc2ccc(C(=O)O)o2)C3=O)cc(C)c1Cl (stereo not shown) [I-132, 5-((8-chloro-1-(3-(4-chloro-3,5-dimethylphenoxy)propyl)-4-methyl-1-oxo-7-(1,3,5-trimethyl-1H-pyrazol-4-yl)-4,5-dihydro-1H-[1,4]diazepino[1,2-a]indol-2(3H)-yl)methyl)furan-2-carboxylic acid]"
2,< 50 nM,"Cc1cc(OCCCc2c3n(c4c(-c5c(C)nn(C)c5C)c(Cl)ccc24)CCCN(c2cc(C(=O)O)cc(N4CCN(C)CC4)c2)C3=O)cc(C)c1Cl [I-219, 3-(8-chloro-11-(3-(4-chloro-3,5-dimethylphenoxy)propyl)-1-oxo-7-(1,3,5-trimethyl-1H-pyrazol-4-yl)-4,5-dihydro-1H-[1,4]diazepino[1,2-a]indol-2(3H)-yl)-5-(4-methylpiperazin-1-yl)benzoic acid]"
3,< 50 nM,"Cc1cc(OCCCc2c3n(c4c(-c5c(C)nn(C)c5C)c(Cl)ccc24)C(C)CCNC3=O)cc(C)c1Cl (stereo not shown) [I-116, 8-chloro-1-(3-(4-chloro-3,5-dimethylphenoxy)propyl)-5-methyl-7-(1,3,5-trimethyl-1H-pyrazol-4-yl)-2,3,4,5-tetrahydro-1H-[1,4]diazepino[1,2-a]indol-1-one]"
4,< 50 nM,"Cc1cc(OCCCc2c3n(c4c(-c5c(C)nn(C)c5C)c(Cl)ccc24)CCCN(c2cc(CN4CCN(C)CC4)cc(C(=O)O)c2)C3=O)cc(C)c1Cl [I-228, 3-(8-chloro-11-(3-(4-chloro-3,5-dimethylphenoxy)propyl)-1-oxo-7-(1,3,5-trimethyl-1H-pyrazol-4-yl)-4,5-dihydro-1H-[1,4]diazepino[1,2-a]indol-2(3H)-yl)-5-((4-methylpiperazin-1-yl)methyl)benzoic acid]"
5,< 50 nM,"Cc1cc(OCCCc2c(C(=O)NCc3cccc(C(=O)O)c3)[nH]c3c(-c4c(C)n[nH]c4C)cccc23)cc(C)c1Cl [I-25a, 3-((3-(3-(4-chloro-3,5-dimethylphenoxy)propyl)-7-(3,5-dimethyl-1H-pyrazol-4-yl)-1H-indole-2-carboxamido)methyl)benzoic acid]"
6,< 50 nM,"Cc1cc(OCCCc2c(C(=O)NC[C@H]3CC[C@H](C(=O)O)CC3)[nH]c3c(-c4c(C)nn(C)c4C)c(Cl)ccc23)cc(C)c1Cl [I-324, (1r,4r)-4-((6-chloro-3-(3-(4-chloro-3,5-dimethylphenoxy)propyl)-7-(1,3,5-trimethyl-1H-pyrazol-4-yl)-1H-indole-2-carboxamido)methyl)cyclohexane-1-carboxylic acid]"
7,< 50 nM,"Cc1cc(OCCCc2c3n(c4c(-c5c(C)nn(C)c5C)c(Cl)ccc24)CCCN(CC(=O)N[C@@H](Cc2ccccc2)C(=O)O)C3=O)cc(C)c1Cl [I-305, (2-(8-chloro-11-(3-(4-chloro-3,5-dimethylphenoxy)propyl)-1-oxo-7-(1,3,5-trimethyl-1H-pyrazol-4-yl)-4,5-dihydro-1H-[1,4]diazepino[1,2-a]indol-2(3H)-yl)acetyl)-L-phenylalanine]"
8,< 50 nM,"Cc1cc(OCCCc2c(C(=O)N3CCN(c4ccc(C(=O)O)cc4)CC3)[nH]c3c(-c4c(C)nn(C)c4C)c(Cl)ccc23)cc(C)c1Cl [I-335, 4-(4-(6-chloro-3-(3-(4-chloro-3,5-dimethylphenoxy)propyl)-7-(1,3,5-trimethyl-1H-pyrazol-4-yl)-1H-indole-2-carbonyl)piperazin-1-yl)benzoic acid]"
9,< 50 nM,"Cc1cc(OCCCc2c(C(=O)Nc3ccc(C(=O)O)c(N4CCN(C)CC4)c3)[nH]c3c(-c4c(C)nn(C)c4C)c(Cl)ccc23)cc(C)c1Cl [I-90, 4-(6-chloro-3-(3-(4-chloro-3,5-dimethylphenoxy)propyl)-7-(1,3,5-trimethyl-1H-pyrazol-4-yl)-1H-indole-2-carboxamido)-2-(4-methylpiperazin-1-yl)benzoic acid]"
10,< 50 nM,"Cc1cc(OCCCc2c3n(c4c(-c5c(C)nn(C)c5C)c(Cl)ccc24)C[C@@H](C)N(Cc2ccc(C(=O)O)o2)C3=O)cc(C)c1Cl [I-123, (R)-5-((7-chloro-10-(3-(4-chloro-3,5-dimethylphenoxy)propyl)-3-methyl-1-oxo-6-(1,3,5-trimethyl-1H-pyrazol-4-yl)-3,4-dihydropyrazino[1,2-a]indol-2(1H)-yl)methyl)furan-2-carboxylic acid]"
11,< 50 nM,"Cc1cc(OCCCc2c(C(=O)N3CCC(C(=O)O)C3)[nH]c3c(-c4c(C)nn(C)c4C)c(Cl)ccc23)cc(C)c1Cl (stereo not shown) [I-336, 1-(6-chloro-3-(3-(4-chloro-3,5-dimethylphenoxy)propyl)-7-(1,3,5-trimethyl-1H-pyrazol-4-yl)-1H-indole-2-carbonyl)pyrrolidine-3-carboxylic acid]"
12,< 50 nM,"Cc1cc(OCCCc2c3n(c4c(-c5c(C)nn(C)c5C)c(Cl)ccc24)CCN(c2ccc(C(=O)O)cc2)C3=O)cc(C)c1Cl [I-176, 4-(7-chloro-10-(3-(4-chloro-3,5-dimethylphenoxy)propyl)-1-oxo-6-(1,3,5-trimethyl-1H-pyrazol-4-yl)-3,4-dihydropyrazino[1,2-a]indol-2(1H)-yl)benzoic acid]"
13,< 50 nM,"Cc1cc(OCCCc2c3n(c4c(-c5c(C)nn(C)c5C)c(Cl)ccc24)CCCN(Cc2ccc(C(=O)NS(=O)(=O)c4ccc(OCc5ccccc5)cc4)cc2)C3=O)cc(C)c1Cl [I-309, N-((4-(benzyloxy)phenyl)sulfonyl)-4-((8-chloro-11-(3-(4-chloro-3,5-dimethylphenoxy)propyl)-1-oxo-7-(1,3,5-trimethyl-1H-pyrazol-4-yl)-4,5-dihydro-1H-[1,4]diazepino[1,2-a]indol-2(3H)-yl)methyl)benzamide]"
14,< 50 nM,"Cc1cc(OCCCc2c3n(c4c(-c5c(C)nn(C)c5C)c(Cl)ccc24)CCCN(c2cc(CN4CCOCC4)cc(C(=O)O)c2)C3=O)cc(C)c1Cl [I-227, 3-(8-chloro-11-(3-(4-chloro-3,5-dimethylphenoxy)propyl)-1-oxo-7-(1,3,5-trimethyl-1H-pyrazol-4-yl)-4,5-dihydro-1H-[1,4]diazepino[1,2-a]indol-2(3H)-yl)-5-(morpholinomethyl)benzoic acid]"
15,< 50 nM,"Cc1cc(OCCCc2c3n(c4c(-c5c(C)nn(C)c5C)c(Cl)ccc24)CCCN(c2cc(C(=O)O)c4ccn(CCN(C)C)c4c2)C3=O)cc(C)c1Cl [I-243, 6-(8-chloro-11-(3-(4-chloro-3,5-dimethylphenoxy)propyl)-1-oxo-7-(1,3,5-trimethyl-1H-pyrazol-4-yl)-4,5-dihydro-1H-[1,4]diazepino[1,2-a]indol-2(3H)-yl)-1-(2-(dimethylamino)ethyl)-1H-indole-4-carboxylic acid]"
16,< 50 nM,"Cc1cc(OCCCc2c(C(=O)Nc3cc(NC4CCOCC4)cc(C(=O)O)c3)[nH]c3c(-c4c(C)nn(C)c4C)c(Cl)ccc23)cc(C)c1Cl [I-209, 3-(6-chloro-3-(3-(4-chloro-3,5-dimethylphenoxy)propyl)-7-(1,3,5-trimethyl-1H-pyrazol-4-yl)-1H-indole-2-carboxamido)-5-((tetrahydro-2H-pyran-4-yl)amino)benzoic acid]"
17,< 50 nM,"Cc1cc(OCCCc2c3n(c4c(-c5c(C)nn(C)c5C)c(Cl)ccc24)CCCN(c2cc(Br)cc(C(=O)O)c2)C3=O)cc(C)c1Cl [I-218, 3-bromo-5-(8-chloro-11-(3-(4-chloro-3,5-dimethylphenoxy)propyl)-1-oxo-7-(1,3,5-trimethyl-1H-pyrazol-4-yl)-4,5-dihydro-1H-[1,4]diazepino[1,2-a]indol-2(3H)-yl)benzoic acid]"

row,SMILES,Ki
1,"Cc1cc(OCCCc2c(C(=O)NCC(=O)NS(=O)(=O)c3cccnc3)[nH]c3ccccc23)cc(C)c1Cl [I-6, 3-(3-(4-chloro-3,5-dimethylphenoxy)propyl)-N-(2-oxo-2-(pyridine-3-sulfonamido)ethyl)-1H-indole-2-carboxamide]",301 to 500 nM
2,"Cc1cc(OCCCc2c(C(=O)NCCC(=O)NS(=O)(=O)c3cccnc3)[nH]c3ccccc23)cc(C)c1Cl [I-15, 3-(3-(4-chloro-3,5-dimethylphenoxy)propyl)-N-(3-oxo-3-(pyridine-3-sulfonamido)propyl)-1H-indole-2-carboxamide]",101 to 299 nM
3,"Cc1cc(OCCCc2c3n(c4c(-c5c(C)nn(C)c5C)c(Cl)ccc24)CCCN(c2ccc(C#N)cc2)C3=O)cc(C)c1Cl [I-356, 4-(8-chloro-11-(3-(4-chloro-3,5-dimethylphenoxy)propyl)-1-oxo-7-(1,3,5-trimethyl-1H-pyrazol-4-yl)-4,5-dihydro-1H-[1,4]diazepino[1,2-a]indol-2(3H)-yl)benzonitrile]",51 to 100 nM

# Same assay, conditions: Table 2; Ki bins given in μM; FITC-Bak or FITC-Bim peptide competition; Ki converted from IC50; read-out: Ki for Inhibition of Mcl-1
row,SMILES,Ki
1,"CCOC(=O)c1ccc(CNC(=O)c2[nH]c3ccccc3c2CCCOc2cc(C)c(Cl)c(C)c2)o1 [I-56, ethyl 5-((3-(3-(4-chloro-3,5-dimethylphenoxy)propyl)-1H-indole-2-carboxamido)methyl)furan-2-carboxylate]",1000 to 9990 nM
2,"CCOC(=O)c1ccc(CNC(=O)c2[nH]c3c(-c4c(C)n[nH]c4C)cccc3c2CCCOc2cc(C)c(Cl)c(C)c2)o1 [I-61, ethyl 5-((3-(3-(4-chloro-3,5-dimethylphenoxy)propyl)-7-(3,5-dimethyl-1H-pyrazol-4-yl)-1H-indole-2-carboxamido)methyl)furan-2-carboxylate]",10000 to 50000 nM
3,"Cc1cc(OCCCc2c(C(=O)NCc3cccc(OC(F)(F)F)c3)[nH]c3c(-c4c(C)nn(C)c4C)cccc23)cc(C)c1Cl [I-264, 3-(3-(4-chloro-3,5-dimethylphenoxy)propyl)-N-(3-(trifluoromethoxy)benzyl)-7-(1,3,5-trimethyl-1H-pyrazol-4-yl)-1H-indole-2-carboxamide]",1000 to 9990 nM
